In ChEMBL document CHEMBL1146976, “Radanamycin, a macrocyclic chimera of radicicol and geldanamycin” (Bioorg Med Chem Lett, 2006):
The source made the active and inactive calls. The calls are words filed in the database; no cut-off is given here.

What was measured:
[1] = biological target: Heat shock protein HSP90 (Homo sapiens) (UniProt P07900+P08238); experiment: Inhibition of Hsp90 assessed by degradation of client proteins Her2 and Akt; format: protein assay
MCF7 = experiment: Antiproliferative activity against human MCF7 cells; format: functional, cell-based

Activity [1]: Active
IC50 (MCF7): 1200 nM
SMILES: COc1c(O)cc2c(O)c1CC(C)OC(=O)c1c(O)cc(O)c(Cl)c1CCC(=O)N2 (configuration not stated) [RADANAMYCIN]
